Test results published in patent US20190160257A1, “METHODS AND SYSTEMS FOR INHIBITING VASCULAR INFLAMMATION” (Mercator MedSystems, Inc., priority 2002, published 2019).
Entries after “also recorded” stand apart in the source; their conditions may differ.

Tests used:
[1] = two injections of 0.5 mL 5% silver nitrate per iliac artery
From the text: The animal was sacrificed according to approved protocol following the last injection. The arteries were removed and placed in 10% formalin without perfusion. 2 mm segments were embedded in paraffin, sectioned, and hematoxylin-eosin stained.

[2] = pig, in vivo
Procedure: Injections were made to depths in the range from 0.8 mm to 1.2 mm One artery was treated intraluminally with 5 mL OGP to determine background vascular uptake. Animals were sacrificed 0.5-23 hr post-procedure following IACUC-approved protocol. After sacrifice, the LAD, RCA and LCx were removed, cut into 4-5 mm sections, which were frozen and cryosectioned. The slides were counter-stained with 0.1% Evan's Blue in PBS (5 min 37 C) to quench autofluorescence, observed with a UV microscope, and scored 0-4+. Representative sections were photographed.

[3] = Distribution of tacrolimus after periadventitial injection in swine coronary arteries, LC/MS of tissue; assay type: in vivo
Procedure: Distribution of a lipophilic compound (tacrolimus): Eight swine underwent angiography. […] The two remaining arteries served as untreated controls. An untreated heart was used as a negative control. At 48 hours arteries were dissected from the musculature and perivascular fat, cut into 5 mm sections and analyzed by Liquid Chromatography/Mass Spectrometry against tacrolimus calibration standards containing homogenized untreated porcine heart tissue.

[4] = system: patients with atherosclerotic lower extremity occlusive disease of the superficial femoral or popliteal arteries
From the text: Patients with TASC II A, B, and C disease of the superficial femoral and/or popliteal arteries were eligible for this study.
Unique identifier: NCT 01507558). The study design was a prospective, single-center, investigator-initiated study that enrolled consecutive patients who met eligibility requirements from the San Francisco Veteran Affairs Medical Center. This study was approved by the Committee for Human Research and the University of California Clinical and Translational Science Institute. Safety data and outcomes were monitored by a Data Safety and Monitoring Committee that convened on a quarterly basis or as needed.
The primary inclusion criteria were patients suffering from moderate to severe disabling claudication, ischemic rest pain, or minor tissue loss secondary to atherosclerotic lower extremity occlusive disease with TransAtlantic Inter-Society Consensus II […] lesions of the superficial femoral artery (SFA) or popliteal arteries.
The Bullfrog® Micro-Infusion is a rapid-exchange, wire-guided catheter with a balloon-sheathed 0.9-mm-long, 35-gauge (140 μm diameter) needle that delivers infusions to adventitial and perivascular tissues. It is Food and Drug Administration 510(k)-cleared for use in coronary and peripheral arteries. It is advanced through a 6F sheath over a 0.014-inch wire and can treat vessels from 3 to 6 mm in diameter. Three radio-opaque markers on the catheter allow for proper orientation of the needle. Using standard angioplasty inflation equipment, the balloon was inflated exposing the needle. When the balloon contacted the arterial wall opposite the needle tip, contact pressure forced the needle through the vessel wall and into the adventitia and perivascular tissues. The contact pressure of the balloon against the artery wall is limited to 2 atmospheres by a pressure release valve, which prevents damage to the artery wall. A mixture of infusate and contrast (4:1) was then delivered under fluoroscopic guidance into the adventitia. A test injection of 0.1 mL was made to confirm proper adventitial placement of the microinfusion needle tip. If resistance is met, or the test injection enters the blood stream, the balloon was deflated and the injection is attempted in another location by moving the catheter a few millimeters proximally or distally or rotating the catheter a few degrees. Once adventitia placement was confirmed, the remainder of the infusate was delivered at a rate of 1 mL/min. When the infusion was complete, the balloon was deflated, sheathing the needle, and allowing the catheter to be withdrawn. FIG. 12. Injections were administered approximately every 3 cm along the length of the treated arterial segment.
Patients not taking aspirin or clopidogrel before study enrollment received 325 mg of aspirin 12 hours prior the procedure. Postprocedure, patients were prescribed 81 mg/d of aspirin to be taken indefinitely and 75 mg/d of clopidogrel daily for 12 weeks. Vascular access was accomplished by either the contralateral or ipsilateral (anterograde) approach. Patients received a bolus of 5000 IU of heparin after insertion of the sheath in the common femoral artery, and their activated clotting time was kept above 250 seconds with additional heparin as needed. In the case of chronic total occlusions, all lesions were crossed subintimally with a glide wire and glide catheter (Terumo, Somerset, N.J.). After securing access across the lesion with a guidewire, the target lesion was treated according to physician preference. All patients were treated with balloon angioplasty.

[5] = system: graft-vein anastomosis and proximal vein of porcine AV grafts; settings: pig, in vivo
Procedure: Fourteen days after graft implantation, percutaneous transluminal angioplasty (PTA) was performed (7 mm balloon, 16 atmosphere inflation pressure) at two sites per graft: across the graft-vein anastomosis (GVA) and in the proximal vein (PV). […] Infusions of 3 ml were always consistent between the 2 grafts in each animal.

[6] = system: patients with superficial femoral or popliteal artery lesions; test: DANCE Trial: circulating hsCRP and MCP-1 after revascularization with adventitial and perivascular dexamethasone; assay type: in vivo, human; settings: baseline and 24 hours, about 1.6 mg per cm of lesion
Procedure: An additional study has enrolled 140 patients in the United States, meeting similar enrollment criteria as those in the 20-patient study described above. In these patients, approximately one-third of them have had blood draws right before a revascularization procedure of their superficial femoral or popliteal artery, and then again at 24±4 hours after their revascularization procedure. Arterial lesions in this study were at least 70% occlusive prior to revascularization and up to 15 cm in length. Revascularization therapy was performed with angioplasty, atherectomy, provisional stenting, or a combination thereof. […] The Schillinger 2002 published research would indicate the likelihood for a substantial rise in the hsCRP after revascularization therapy, and that this rise is linked to the rate of restenosis at 6 months following the revascularization procedure. The data from Schillinger 2002 and the 20-patient study described above (the DANCE-Pilot, in which 15 patients had baseline and 24 hour hsCRP levels examined) are plotted in FIG. 15, along with 41 patients from the larger 139 patient group (the DANCE Trial).
Additional data coming out of the interim analysis of the DANCE study includes the first 9 patients to have MCP-1 analyzed from their circulating blood at baseline and at 24 hours. […]

O=[N+]([O-])[O-].[Ag+] [Silver Nitrate]
staining: site of delivery and diffusion [1]: delivery outside the external elastic lamina of the vessels and diffusion around the circumference

Oregon Green® 488 paclitaxel [OGP]
circumferential staining [2]: staining was observed throughout the circumference of the artery

C=CC[C@@H]1/C=C(\C)C[C@H](C)C[C@H](OC)[C@H]2O[C@@](O)(C(=O)C(=O)N3CCCC[C@H]3C(=O)O[C@H](/C(C)=C/[C@@H]3CC[C@@H](O)[C@H](OC)C3)[C@H](C)[C@@H](O)CC1=O)[C@H](C)C[C@@H]2OC [tacrolimus]
segments in which drug was detected ([3]; 48 hours, including side branches and uninjected arteries): 285/293 | subjects with distribution to the entire coronary tree ([3]; periadventitial delivery, higher concentrations at injection sites): 8/8

C[C@@H]1C[C@H]2[C@@H]3CCC4=CC(=O)C=C[C@]4(C)[C@@]3(F)[C@@H](O)C[C@]2(C)[C@@]1(O)C(=O)CO [dexamethasone]
patients with target lesion restenosis ([4]; 6 month follow up, PSV ratio >2.4 or occlusion by ultrasound): two | Rutherford classification scores versus pre-op baseline ([4]; 6 months, all patients but the one with target lesion restenosis): improved | mean Rutherford score ([4]; 6 months, preoperative 3.1±0.71, P<0.00001): 0.5±0.70 | median Rutherford score ([4]; 6 months, preoperative median 3.0): 0 | mean ABI versus baseline ([4]; all time points post procedure, FIG. 14): significantly improved | patients with only partial coverage by contrast distribution (grade=B) ([4]; assessed by fluoroscopy): one | subjects with complete circumferential coverage of the lesion with the infusate (grade=A) ([4]; assessed by fluoroscopy immediately after the infusion): 19 out of 20 subjects | patients with loss of primary patency (duplex ultrasound binary restenosis) ([4]; by 6 months, 20 patients): Two | anticipated rise of hsCRP ([4]; compared with Schillinger 2002): appears to be dampened | patients with target extremity stenosis not within the treated segment ([4]; follow up 381±181 days): Three | ABI measurements ([4]; one-year follow up, N=10, P<0.0001 vs baseline): 1.04±0.21 | PSVR ([4]; one-year follow up, patients without index lesion restenosis, N=8): 1.1±0.6 | CRP at 24 hours following the procedure ([4]; preoperative 6.9±8.5, P=0.14): 14.0 ± 23.1 mg/L | increase of CRP at 24 hours ([4]; versus preoperative, not statistically significant (P=0.14)): 103% | drug or device-related adverse events reported ([4]; within 30 days, acute hyperglycemia in one patient, controlled by insulin): one | adverse effect compared to placebo in the adventitia [5]: no observable adverse effect | effect on hsCRP inflammatory spike after revascularization ([6]; 41 patients, versus Schillinger 2002, FIG. 15): capable of reducing the inflammatory spike | change in circulating MCP-1 ([6]; first 9 patients, FIG. 16): marked drop in MCP-1; also recorded: a drop in MCP-1
